Laboratory results taken from ChEMBL document CHEMBL3885861, “Open TG-GATES”.

Organism: Rattus norvegicus
Test: Open TG-GATES - Regimen: Daily Repeat
Assay type: toxicity, organism-based, Sprague-Dawley
Set-up: regimen Daily Repeat, gender Male, age 6 weeks
Conditions: in vivo, iv, 20 mg/kg, route intravenous injection, dose level High; for APTT / Bas / Eos / Fbg / Hb / Ht / Lym / MCH / MCHC / MCV / Mono / Neu / PT / Plat / RBC / Ret / WBC: tissue Blood; for KIDNEY_L / KIDNEY_R / KIDNEY_TOTAL: tissue Kidney; for LIVER: tissue Liver; for A/G / ALP / ALT / AST / BUN / CRE / Ca / Cl / DBIL / GLC / IP / K / LDH / Na / PL / RALB / TBIL / TC / TG / TP / gamma-GTP: tissue Plasma

`NCCBr` [BROMOETHANAMINE] was tested, and the TERMINAL_BW (72 h, time 3 day) was 210.6 g, the APTT (72 h, time 3 day) was 22.4 s and the Bas (72 h, time 3 day) was 0%. For the same molecule, the Eos (72 h, time 3 day) was 1%, the Fbg (72 h, time 3 day) was 351 mg/dL and the Hb (72 h, time 3 day) was 13.7 g/dL. The Ht (72 h, time 3 day) was 39.6%, the Lym (72 h, time 3 day) was 83.4% and the MCH (72 h, time 3 day) was 21.2 pg. For the same molecule, the MCHC (72 h, time 3 day) was 34.5%, the MCV (72 h, time 3 day) was 61.3 fL and the Mono (72 h, time 3 day) was 3%. For the same molecule, the Neu (72 h, time 3 day) was 11%, the PT (72 h, time 3 day) was 16.3 s and the Plat (72 h, time 3 day) was 130.9 x10_4/uL. The RBC (72 h, time 3 day) was 646.2 x10_4/ul, the Ret (72 h, time 3 day) was 2.4% and the WBC (72 h, time 3 day) was 69.9 x10_2/uL. The KIDNEY_L (72 h, time 3 day) was 1 g, the KIDNEY_R (72 h, time 3 day) was 1 g and the KIDNEY_TOTAL (72 h, time 3 day) was 2 g. It also gave an LIVER (72 h, time 3 day) of 9.3 g, an A/G (72 h, time 3 day) of 1.2 and an ALP (72 h, time 3 day) of 1285.8 IU/L. For the same molecule, the ALT (72 h, time 3 day) was 37 IU/L, the AST (72 h, time 3 day) was 63.2 IU/L and the BUN (72 h, time 3 day) was 16 mg/dL. It also gave a CRE (72 h, time 3 day) of 0.2 mg/dL, a Ca (72 h, time 3 day) of 10.6 mg/dL and a Cl (72 h, time 3 day) of 109.2 meq/L. For the same molecule, the DBIL (72 h, time 3 day) was 0.004 mg/dL, the GLC (72 h, time 3 day) was 160 mg/dL and the IP (72 h, time 3 day) was 5.8 mg/dL. The K (72 h, time 3 day) was 4.5 meq/L, the LDH (72 h, time 3 day) was 206.4 IU/L and the Na (72 h, time 3 day) was 141.6 meq/L. For the same molecule, the PL (72 h, time 3 day) was 140 mg/dL, the RALB (72 h, time 3 day) was 3 g/dL and the TBIL (72 h, time 3 day) was 0.014 mg/dL. The TC (72 h, time 3 day) was 77.8 mg/dL, the TG (72 h, time 3 day) was 53.4 mg/dL and the TP (72 h, time 3 day) was 5.6 g/dL. It also gave a gamma-GTP (72 h, time 3 day) of 1.4 IU/L, a TERMINAL_BW ([…], time 7 day) of 227.1 g and a TERMINAL_BW ([…], time 14 day) of 262.8 g. It also gave a TERMINAL_BW ([…], time 28 day) of 323 g, an APTT ([…], time 7 day) of 23 s and a Bas ([…], time 7 day) of 0%. For the same molecule, the Eos ([…], time 7 day) was 0.8%, the Fbg ([…], time 7 day) was 332.6 mg/dL and the Hb ([…], time 7 day) was 14.1 g/dL. The Ht ([…], time 7 day) was 40.5%, the Lym ([…], time 7 day) was 86.8% and the MCH ([…], time 7 day) was 20.9 pg. The MCHC ([…], time 7 day) was 34.8%, the MCV ([…], time 7 day) was 59.9 fL and the Mono ([…], time 7 day) was 2.4%. For the same molecule, the Neu ([…], time 7 day) was 8.6%, the PT ([…], time 7 day) was 15.9 s and the Plat ([…], time 7 day) was 140.5 x10_4/uL. The RBC ([…], time 7 day) was 676 x10_4/ul, the Ret ([…], time 7 day) was 1.6% and the WBC ([…], time 7 day) was 87 x10_2/uL. For the same molecule, the APTT ([…], time 14 day) was 24.6 s, the Bas ([…], time 14 day) was 0% and the Eos ([…], time 14 day) was 0.2%. For the same molecule, the Fbg ([…], time 14 day) was 332.6 mg/dL, the Hb ([…], time 14 day) was 14.1 g/dL and the Ht ([…], time 14 day) was 40.7%. The Lym ([…], time 14 day) was 87.4%, the MCH ([…], time 14 day) was 20.1 pg and the MCHC ([…], time 14 day) was 34.6%. For the same molecule, the MCV ([…], time 14 day) was 58.1 fL, the Mono ([…], time 14 day) was 2% and the Neu ([…], time 14 day) was 9.2%. The PT ([…], time 14 day) was 15.6 s, the Plat ([…], time 14 day) was 134.2 x10_4/uL and the RBC ([…], time 14 day) was 700.8 x10_4/ul. It also gave a Ret ([…], time 14 day) of 2.7%, a WBC ([…], time 14 day) of 76.8 x10_2/uL and an APTT ([…], time 28 day) of 25.9 s. It also gave a Bas ([…], time 28 day) of 0%, an Eos ([…], time 28 day) of 1.4% and a Fbg ([…], time 28 day) of 333.4 mg/dL. It also gave a Hb ([…], time 28 day) of 14.8 g/dL, a Ht ([…], time 28 day) of 40.7% and a Lym ([…], time 28 day) of 79%. The MCH ([…], time 28 day) was 19.9 pg, the MCHC ([…], time 28 day) was 36.3% and the MCV ([…], time 28 day) was 54.8 fL. For the same molecule, the Mono ([…], time 28 day) was 3%, the Neu ([…], time 28 day) was 15.6% and the PT ([…], time 28 day) was 16.1 s. It also gave a Plat ([…], time 28 day) of 120.7 x10_4/uL, an RBC ([…], time 28 day) of 744 x10_4/ul and a Ret ([…], time 28 day) of 3.3%. For the same molecule, the WBC ([…], time 28 day) was 65.8 x10_2/uL, the KIDNEY_L ([…], time 7 day) was 1.1 g and the KIDNEY_R ([…], time 7 day) was 1.1 g. For the same molecule, the KIDNEY_TOTAL ([…], time 7 day) was 2.2 g, the KIDNEY_L ([…], time 14 day) was 1.2 g and the KIDNEY_R ([…], time 14 day) was 1.2 g. The KIDNEY_TOTAL ([…], time 14 day) was 2.4 g, the KIDNEY_L ([…], time 28 day) was 1.4 g and the KIDNEY_R ([…], time 28 day) was 1.4 g. The KIDNEY_TOTAL ([…], time 28 day) was 2.8 g, the LIVER ([…], time 7 day) was 11.1 g and the LIVER ([…], time 14 day) was 13.6 g. It also gave an LIVER ([…], time 28 day) of 18.5 g, an A/G ([…], time 7 day) of 1.1 and an ALP ([…], time 7 day) of 1454.4 IU/L. It also gave an ALT ([…], time 7 day) of 31.6 IU/L, an AST ([…], time 7 day) of 53.4 IU/L and a BUN ([…], time 7 day) of 15.6 mg/dL. The CRE ([…], time 7 day) was 0.2 mg/dL, the Ca ([…], time 7 day) was 10.7 mg/dL and the Cl ([…], time 7 day) was 109 meq/L. For the same molecule, the DBIL ([…], time 7 day) was 0 mg/dL, the GLC ([…], time 7 day) was 174.2 mg/dL and the IP ([…], time 7 day) was 7 mg/dL. It also gave a K ([…], time 7 day) of 4.3 meq/L, an LDH ([…], time 7 day) of 176.6 IU/L and a Na ([…], time 7 day) of 141.2 meq/L. It also gave a PL ([…], time 7 day) of 147.4 mg/dL, an RALB ([…], time 7 day) of 3 g/dL and a TBIL ([…], time 7 day) of 0.006 mg/dL. The TC ([…], time 7 day) was 75.2 mg/dL, the TG ([…], time 7 day) was 98.6 mg/dL and the TP ([…], time 7 day) was 5.7 g/dL. The gamma-GTP ([…], time 7 day) was 1.6 IU/L, the A/G ([…], time 14 day) was 1.1 and the ALP ([…], time 14 day) was 1344.2 IU/L. The ALT ([…], time 14 day) was 34.2 IU/L, the AST ([…], time 14 day) was 49.4 IU/L and the BUN ([…], time 14 day) was 19.2 mg/dL. For the same molecule, the CRE ([…], time 14 day) was 0.1 mg/dL, the Ca ([…], time 14 day) was 10.8 mg/dL and the Cl ([…], time 14 day) was 110.2 meq/L. For the same molecule, the DBIL ([…], time 14 day) was 0 mg/dL, the GLC ([…], time 14 day) was 170.4 mg/dL and the IP ([…], time 14 day) was 6.8 mg/dL. It also gave a K ([…], time 14 day) of 4.3 meq/L, an LDH ([…], time 14 day) of 135.6 IU/L and a Na ([…], time 14 day) of 144.4 meq/L. The PL ([…], time 14 day) was 143 mg/dL, the RALB ([…], time 14 day) was 3.1 g/dL and the TBIL ([…], time 14 day) was 0.012 mg/dL. It also gave a TC ([…], time 14 day) of 69.2 mg/dL, a TG ([…], time 14 day) of 93.6 mg/dL and a TP ([…], time 14 day) of 6 g/dL. It also gave a gamma-GTP ([…], time 14 day) of 2.6 IU/L, an A/G ([…], time 28 day) of 1 and an ALP ([…], time 28 day) of 1076.6 IU/L. The ALT ([…], time 28 day) was 39 IU/L, the AST ([…], time 28 day) was 43 IU/L and the BUN ([…], time 28 day) was 20.2 mg/dL. It also gave a CRE ([…], time 28 day) of 0.1 mg/dL, a Ca ([…], time 28 day) of 10.7 mg/dL and a Cl ([…], time 28 day) of 106.2 meq/L. It also gave a DBIL ([…], time 28 day) of 0 mg/dL, a GLC ([…], time 28 day) of 178 mg/dL and an IP ([…], time 28 day) of 7 mg/dL. The K ([…], time 28 day) was 4.2 meq/L, the LDH ([…], time 28 day) was 118 IU/L and the Na ([…], time 28 day) was 144.2 meq/L. The PL ([…], time 28 day) was 170 mg/dL, the RALB ([…], time 28 day) was 3.4 g/dL and the TBIL ([…], time 28 day) was 0.042 mg/dL. For the same molecule, the TC ([…], time 28 day) was 77.6 mg/dL, the TG ([…], time 28 day) was 143.6 mg/dL and the TP ([…], time 28 day) was 6.6 g/dL. For the same molecule, the gamma-GTP ([…], time 28 day) was 4 IU/L.
